PubChem BioAssay (NCI)
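These data come from cells grown in 96-well plates and exposed to compound for 48 hours at five concentrations. The concentration for 50% growth inhibition is given as GI50. At the TGI there is no net growth.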

How the values were obtained:
Test in all cases: DTP human tumour cell line panel, 48 h
[1] = system: 786-0 renal
[2] = system: A498 renal
[3] = system: A549 NSCLC
[4] = system: ACHN renal
[5] = system: BT-549 breast
[6] = system: CAKI-1 renal
[7] = system: CCRF-CEM leukemia
[8] = system: COLO 205 colon
[9] = system: DU-145 prostate
[10] = system: EKVX NSCLC
[11] = system: HCC-2998 colon
[12] = system: HCT-116 colon
[13] = system: HCT-15 colon
[14] = system: HL-60(TB) leukemia
[15] = system: HOP-62 NSCLC
[16] = system: HOP-92 NSCLC
[17] = system: HS 578T breast
[18] = system: HT29 colon
[19] = system: IGROV1 ovarian
[20] = system: K-562 leukemia
[21] = system: KM12 colon
[22] = system: LOX IMVI melanoma
[23] = system: M14 melanoma
[24] = system: MALME-3M melanoma
[25] = system: MCF7 breast
[26] = system: MDA-MB-231 breast
[27] = system: MDA-MB-435
[28] = system: NCI-H226 lung
[29] = system: NCI-H23 lung
[30] = system: NCI-H460 lung
[31] = system: NCI-H522 lung
[32] = system: NCI/ADR-RES ovarian
[33] = system: OVCAR-3 ovarian
[34] = system: OVCAR-4 ovarian
[35] = system: OVCAR-5 ovarian
[36] = system: OVCAR-8 ovarian
[37] = system: PC-3 prostate
[38] = system: RPMI-8226 leukemia
[39] = system: RXF 393 renal
[40] = system: SF-268 CNS
[41] = system: SF-295 CNS
[42] = system: SF-539 CNS
[43] = system: SK-MEL-2 melanoma
[44] = system: SK-MEL-28 melanoma
[45] = system: SK-MEL-5 melanoma
[46] = system: SK-OV-3 ovarian
[47] = system: SN12C renal
[48] = system: SNB-19 CNS
[49] = system: SNB-75 CNS
[50] = system: SW-620 colon
[51] = system: T-47D breast
[52] = system: TK-10 renal
[53] = system: U251 CNS
[54] = system: UACC-257 melanoma
[55] = system: UACC-62 melanoma
[56] = system: UO-31 renal

**Q.** With `CC1SC2(CCC(c3ccccc3)CC2)N(NC(=O)c2[nH]c3ccc(F)cc3c2-c2ccccc2)C1=O` (configuration not stated) as the compound, how does the GI50 [1] read?
**A.** 2.92 µM

**Q.** And the TGI [1]?
**A.** 12.2 µM

**Q.** And the GI50 [2]?
**A.** 13 µM

**Q.** What about the TGI [2] of the same compound?
**A.** 28.2 µM

**Q.** And the GI50 [3]?
**A.** 7.72 µM

**Q.** And the TGI [3]?
**A.** 46.8 µM

**Q.** What about the GI50 [4] of the same compound?
**A.** 3.4 µM

**Q.** What about the TGI [4] of the same compound?
**A.** 14.9 µM

**Q.** And the GI50 [5]?
**A.** 5.45 µM

**Q.** And the TGI [5]?
**A.** 34.6 µM

**Q.** What about the GI50 [6] of the same compound?
**A.** 4.38 µM

**Q.** And the TGI [6]?
**A.** 24.5 µM

**Q.** And the GI50 [7]?
**A.** 1.59 µM

**Q.** What about the TGI [7] of the same compound?
**A.** 13.4 µM

**Q.** What about the GI50 [8] of the same compound?
**A.** 2.96 µM

**Q.** And the TGI [8]?
**A.** 10.5 µM

**Q.** What about the GI50 [9] of the same compound?
**A.** 4.33 µM

**Q.** And the TGI [9]?
**A.** 17.8 µM

**Q.** And the GI50 [10]?
**A.** 12.4 µM

**Q.** What about the TGI [10] of the same compound?
**A.** 54.2 µM

**Q.** What about the GI50 [11] of the same compound?
**A.** 2.51 µM

**Q.** And the TGI [11]?
**A.** 7.05 µM

**Q.** What about the GI50 [12] of the same compound?
**A.** 1.94 µM

**Q.** And the TGI [12]?
**A.** 4.56 µM

**Q.** And the GI50 [13]?
**A.** 2.43 µM

**Q.** And the TGI [13]?
**A.** 11.1 µM

**Q.** What about the GI50 [14] of the same compound?
**A.** 1.31 µM

**Q.** What about the TGI [14] of the same compound?
**A.** 4.53 µM

**Q.** And the GI50 [15]?
**A.** 4.59 µM

**Q.** And the TGI [15]?
**A.** 23.5 µM

**Q.** What about the GI50 [16] of the same compound?
**A.** 1.33 µM

**Q.** And the TGI [16]?
**A.** 3.65 µM

**Q.** What about the GI50 [17] of the same compound?
**A.** 12 µM

**Q.** What about the TGI [17] of the same compound?
**A.** 68.3 µM

**Q.** What about the GI50 [18] of the same compound?
**A.** 1.67 µM

**Q.** What about the TGI [18] of the same compound?
**A.** 4.18 µM

**Q.** And the GI50 [19]?
**A.** 3.89 µM

**Q.** What about the TGI [19] of the same compound?
**A.** 20 µM

**Q.** What about the GI50 [20] of the same compound?
**A.** 2.11 µM

**Q.** And the TGI [20]?
**A.** 6.1 µM

**Q.** What about the GI50 [21] of the same compound?
**A.** 2.32 µM

**Q.** What about the TGI [21] of the same compound?
**A.** 6.91 µM

**Q.** What about the GI50 [22] of the same compound?
**A.** 2.9 µM

**Q.** What about the TGI [22] of the same compound?
**A.** 14 µM

**Q.** What about the GI50 [23] of the same compound?
**A.** 5.67 µM

**Q.** And the TGI [23]?
**A.** 21.9 µM

**Q.** And the GI50 [24]?
**A.** 16 µM

**Q.** What about the TGI [24] of the same compound?
**A.** 49.8 µM

**Q.** And the GI50 [25]?
**A.** 4.78 µM

**Q.** What about the TGI [25] of the same compound?
**A.** 24.1 µM

**Q.** What about the GI50 [26] of the same compound?
**A.** 14.8 µM

**Q.** What about the TGI [26] of the same compound?
**A.** 44 µM

**Q.** What about the GI50 [27] of the same compound?
**A.** 6.11 µM

**Q.** What about the TGI [27] of the same compound?
**A.** 39.3 µM

**Q.** And the GI50 [28]?
**A.** 11 µM

**Q.** And the TGI [28]?
**A.** 29.8 µM

**Q.** And the GI50 [29]?
**A.** 4.4 µM

**Q.** What about the TGI [29] of the same compound?
**A.** 19 µM

**Q.** What about the GI50 [30] of the same compound?
**A.** 4.28 µM

**Q.** And the TGI [30]?
**A.** 40.2 µM

**Q.** And the GI50 [31]?
**A.** 7.21 µM

**Q.** And the TGI [31]?
**A.** 24.6 µM

**Q.** What about the GI50 [32] of the same compound?
**A.** 3.58 µM

**Q.** And the TGI [32]?
**A.** 23.4 µM

**Q.** What about the GI50 [33] of the same compound?
**A.** 4.33 µM

**Q.** And the TGI [33]?
**A.** 53.8 µM

**Q.** And the GI50 [34]?
**A.** 3.87 µM

**Q.** And the TGI [34]?
**A.** 18.3 µM

**Q.** And the GI50 [35]?
**A.** 18.5 µM

**Q.** What about the TGI [35] of the same compound?
**A.** 43.8 µM

**Q.** What about the GI50 [36] of the same compound?
**A.** 2.87 µM

**Q.** What about the TGI [36] of the same compound?
**A.** 19 µM

**Q.** And the GI50 [37]?
**A.** 1.56 µM

**Q.** What about the TGI [37] of the same compound?
**A.** 5.34 µM

**Q.** What about the GI50 [38] of the same compound?
**A.** 0.804 µM

**Q.** And the TGI [38]?
**A.** 2.91 µM

**Q.** What about the GI50 [39] of the same compound?
**A.** 2.22 µM

**Q.** What about the TGI [39] of the same compound?
**A.** 7.49 µM

**Q.** And the GI50 [40]?
**A.** 21.2 µM

**Q.** What about the TGI [40] of the same compound?
**A.** > 100 µM

**Q.** And the GI50 [41]?
**A.** 12.1 µM

**Q.** What about the TGI [41] of the same compound?
**A.** 69 µM

**Q.** And the GI50 [42]?
**A.** 20 µM

**Q.** What about the TGI [42] of the same compound?
**A.** 49.3 µM

**Q.** And the GI50 [43]?
**A.** 14 µM

**Q.** And the TGI [43]?
**A.** 38.6 µM

**Q.** What about the GI50 [44] of the same compound?
**A.** 5.34 µM

**Q.** And the TGI [44]?
**A.** 18.1 µM

**Q.** And the GI50 [45]?
**A.** 3.85 µM

**Q.** What about the TGI [45] of the same compound?
**A.** 21.6 µM

**Q.** What about the GI50 [46] of the same compound?
**A.** 54.3 µM

**Q.** What about the TGI [46] of the same compound?
**A.** > 100 µM

**Q.** And the GI50 [47]?
**A.** 3.56 µM

**Q.** And the TGI [47]?
**A.** 12.7 µM

**Q.** What about the GI50 [48] of the same compound?
**A.** 26.6 µM

**Q.** What about the TGI [48] of the same compound?
**A.** > 100 µM

**Q.** What about the GI50 [49] of the same compound?
**A.** 19.4 µM

**Q.** And the TGI [49]?
**A.** 42.2 µM

**Q.** What about the GI50 [50] of the same compound?
**A.** 6.57 µM

**Q.** What about the TGI [50] of the same compound?
**A.** > 100 µM

**Q.** What about the GI50 [51] of the same compound?
**A.** 14.2 µM

**Q.** And the TGI [51]?
**A.** > 100 µM

**Q.** What about the GI50 [52] of the same compound?
**A.** 7.57 µM

**Q.** What about the TGI [52] of the same compound?
**A.** > 100 µM

**Q.** And the GI50 [53]?
**A.** 4.09 µM

**Q.** And the TGI [53]?
**A.** 24 µM

**Q.** What about the GI50 [54] of the same compound?
**A.** 19 µM

**Q.** What about the TGI [54] of the same compound?
**A.** 53.9 µM

**Q.** What about the GI50 [55] of the same compound?
**A.** 6.21 µM

**Q.** What about the TGI [55] of the same compound?
**A.** 27.4 µM

**Q.** And the GI50 [56]?
**A.** 6.48 µM

**Q.** What about the TGI [56] of the same compound?
**A.** 33.1 µM
